Source: patent publication US11116760B2 (Gilead Sciences, Inc., priority 2018, dated 2021)

Molecular target: α4β7 integrin (Homo sapiens (Human), UniProt P13612+P26010)
Assay: α4β7 Integrin Cell Capture Assay
Format: cell-based
Details: RPMI8866 cells captured on MadCAM-1 extracellular domain-coated plate
Method: α4β7 Integrin Cell Capture Assay
The potency of inhibitors in preventing α4β7 integrin interaction with MadCAM-1 was measured by monitoring the capture of α4β7 integrin expressing cells on a recombinant MadCAM-1 extracellular domain-coated plate. […] The plates were then washed with PBS and blocked with 3% BSA for 2 hours before being washed again.
RPM18866 cells were spun down and re-suspended in assay medium (DMEM+0.5% FBS+0.5 mM MnCl2) at a density of 0.5×10^6 cells/mL. […] The plates were incubated at 37° C. for 1 hour. 50 μL of cells were transferred to the blocked, MadCAM-1-coated plates and incubated for 30 minutes at 37° C. […] The plates were incubated for 90 minutes at room temperature. The plates were then washed 3 times with 70 μL of PBS per well and imaged on a Cellomics ArrayScan instrument. The cells that were bound to the plate were counted and plotted against the compound concentration to determine the EC50 of the test compounds.

α4β7 integrin, sequence (P13612 34-1032): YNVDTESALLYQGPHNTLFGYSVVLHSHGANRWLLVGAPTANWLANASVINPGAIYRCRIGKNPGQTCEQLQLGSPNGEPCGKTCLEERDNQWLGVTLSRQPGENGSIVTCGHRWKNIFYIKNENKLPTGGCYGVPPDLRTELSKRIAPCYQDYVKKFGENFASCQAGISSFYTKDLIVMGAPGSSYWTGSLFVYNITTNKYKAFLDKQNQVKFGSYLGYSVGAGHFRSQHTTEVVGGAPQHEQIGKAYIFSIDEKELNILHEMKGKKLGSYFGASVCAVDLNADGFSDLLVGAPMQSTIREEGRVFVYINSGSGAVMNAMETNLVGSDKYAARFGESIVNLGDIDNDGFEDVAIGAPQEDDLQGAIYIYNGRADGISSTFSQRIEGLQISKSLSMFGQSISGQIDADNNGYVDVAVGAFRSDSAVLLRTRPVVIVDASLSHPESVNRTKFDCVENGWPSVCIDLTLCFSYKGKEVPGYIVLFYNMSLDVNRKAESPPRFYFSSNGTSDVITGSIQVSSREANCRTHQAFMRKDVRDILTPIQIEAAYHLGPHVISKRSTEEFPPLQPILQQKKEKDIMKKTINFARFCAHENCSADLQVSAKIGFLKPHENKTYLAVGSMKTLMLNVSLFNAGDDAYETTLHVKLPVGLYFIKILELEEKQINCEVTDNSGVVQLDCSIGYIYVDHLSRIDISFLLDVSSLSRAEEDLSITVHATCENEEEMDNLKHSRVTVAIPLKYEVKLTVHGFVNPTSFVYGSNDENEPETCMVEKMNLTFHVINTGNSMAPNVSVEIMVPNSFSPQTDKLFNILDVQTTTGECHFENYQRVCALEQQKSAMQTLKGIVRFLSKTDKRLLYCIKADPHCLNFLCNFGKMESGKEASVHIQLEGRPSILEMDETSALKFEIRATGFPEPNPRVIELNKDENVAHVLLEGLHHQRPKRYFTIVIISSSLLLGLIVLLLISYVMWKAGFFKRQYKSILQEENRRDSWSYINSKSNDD
α4β7 integrin, sequence (P26010 20-798): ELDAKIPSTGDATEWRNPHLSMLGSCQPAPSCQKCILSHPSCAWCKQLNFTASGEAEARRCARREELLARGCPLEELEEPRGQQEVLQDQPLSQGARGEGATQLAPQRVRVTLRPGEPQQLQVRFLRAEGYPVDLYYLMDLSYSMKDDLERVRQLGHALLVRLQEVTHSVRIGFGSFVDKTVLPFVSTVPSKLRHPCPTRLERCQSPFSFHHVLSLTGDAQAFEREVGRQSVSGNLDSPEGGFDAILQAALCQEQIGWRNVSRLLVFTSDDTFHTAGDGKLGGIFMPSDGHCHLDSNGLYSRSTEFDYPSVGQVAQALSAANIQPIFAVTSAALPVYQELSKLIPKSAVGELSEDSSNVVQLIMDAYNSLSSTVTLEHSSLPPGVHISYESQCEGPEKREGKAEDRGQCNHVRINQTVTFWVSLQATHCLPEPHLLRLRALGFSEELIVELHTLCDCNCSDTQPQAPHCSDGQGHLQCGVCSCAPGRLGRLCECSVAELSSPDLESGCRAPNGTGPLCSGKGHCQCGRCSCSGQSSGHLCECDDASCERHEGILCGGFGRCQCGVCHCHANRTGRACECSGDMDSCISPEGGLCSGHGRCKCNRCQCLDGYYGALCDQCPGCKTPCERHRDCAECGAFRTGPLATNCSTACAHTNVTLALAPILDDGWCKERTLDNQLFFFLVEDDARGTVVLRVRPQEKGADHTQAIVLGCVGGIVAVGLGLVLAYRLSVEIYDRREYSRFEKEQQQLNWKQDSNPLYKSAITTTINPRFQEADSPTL

SMILES	EC50
Cc1cc(N2CCOC[C@@H]2C(F)(F)F)cc(F)c1C(=O)N[C@@H](Cc1ccc(-n2c(=O)c3cnccc3n(C)c2=O)c2ncccc12)C(=O)O [Example 434]	0.103 nM
Cc1cc(N2CCOC[C@@H]2C(F)(F)F)cc(F)c1C(=O)N[C@@H](Cc1ccc(-c2cc(C(F)(F)F)c(C)n(C)c2=O)c2ncccc12)C(=O)O [Example 448]	0.307 nM
Cc1cc(N2CCOC[C@@H]2C(F)(F)F)cc(F)c1C(=O)N[C@@H](Cc1ccc(-c2c(Cl)cc(C)n(C)c2=O)c2ncccc12)C(=O)O [Example 449]	0.092 nM
Cc1cc(N2CCOC[C@@H]2C(F)(F)F)cc(F)c1C(=O)N[C@@H](Cc1ccc(-c2c(C)c(Cl)cn(C)c2=O)c2ncccc12)C(=O)O [Example 451]	0.208 nM
Cc1cc(C(F)(F)F)c(-c2ccc(C[C@H](NC(=O)c3c(F)cc(N4CCOC[C@@H]4C(F)(F)F)cc3C(C)C)C(=O)O)c3cccnc23)c(=O)n1C [Example 470]	0.181 nM
Cc1cc(N2CCOC[C@@H]2C(F)(F)F)cc(F)c1C(=O)N[C@@H](Cc1ccc(-c2cc3cnccc3n(C)c2=O)c2ncccc12)C(=O)O [Example 469]	0.103 nM
Cc1cc(C(F)(F)F)c(-c2ccc(C[C@H](NC(=O)c3c(F)cc(N4C[C@H]5C[C@@H]4CO5)cc3F)C(=O)O)c3cccnc23)c(=O)n1C [Example 480]	0.297 nM
CCn1c(=O)n(-c2ccc(C[C@H](NC(=O)c3c(C)cc(N4CCOC[C@@H]4C(F)(F)F)cc3F)C(=O)O)c3cccnc23)c(=O)c2ccncc21 [Example 417]	0.117 nM

Same assay, conditions: Table 1; capture of α4β7 expressing RPM18866 cells on MadCAM-1 extracellular domain-coated plate

SMILES	EC50
Cc1cc(C(F)(F)F)c(-c2ccc(C[C@H](NC(=O)c3c(F)cc(N4CCOC[C@@H]4CC(F)F)cc3F)C(=O)O)c3cccnc23)c(=O)n1C [Example 130, (S)-2-(4-((S)-3-(2,2-difluoroethyl)morpholino)-2,6-difluorobenzamido)-3-(8-(1,6-dimethyl-2-oxo-4-(trifluoromethyl)-1,2-dihydropyridin-3-yl)quinolin-5-yl)propanoic acid]	0.5 nM
N#Cc1ccc(-c2ccc(C[C@H](NC(=O)c3c(F)cc(N[C@@H](C4CC4)C(F)(F)F)cc3F)C(=O)O)c3cccnc23)c(Cl)c1 [Example 148]	60.6 nM
CC[C@@H](Nc1cc(F)c(C(=O)N[C@@H](Cc2ccc(-c3c(C)c4cc(F)ccc4n(C)c3=O)c3ncccc23)C(=O)O)c(F)c1)C(F)(F)F (atropisomer, axis not shown) [Example 109, (S)-2-(2,6-difluoro-4-(((R)-1,1,1-trifluorobutan-2-yl)amino)benzamido)-3-(6-fluoro-1,4-dimethyl-2-oxo-1,2-dihydro-[3,8′-biquinolin]-5′-yl)propanoic acid]	0.3 nM
CC(O)Cc1cc(F)c(C(=O)N[C@@H](Cc2ccc(-c3ccc(C#N)cc3Cl)c3ncccc23)C(=O)O)c(F)c1 (stereo partly drawn) [Example 24, (2S)-3-(8-(2-chloro-4-cyanophenyl)quinolin-5-yl)-2-(2,6-difluoro-4-(2-hydroxypropyl)benzamido)propanoic acid]	56.7 nM
C[C@@H](NC(=O)c1cc(F)c(C(=O)N[C@@H](Cc2ccc(-c3ccc(C#N)cc3Cl)c3ncccc23)C(=O)O)c(F)c1)c1ccccc1 [Example 27, (S)-3-(8-(2-chloro-4-cyanophenyl)quinolin-5-yl)-2-(2,6-difluoro-4-(((R)-1-phenylethyl)carbamoyl)benzamido)propanoic acid]	12.8 nM
N#Cc1ccc(-c2c(F)cc(C[C@H](NC(=O)c3c(F)cccc3F)C(=O)O)c3cccnc23)c(Cl)c1 [Example 34, (2S)-3-(8-(2-chloro-4-cyanophenyl)-7-fluoroquinolin-5-yl)-2-(2,6-difluorobenzamido)propanoic acid]	39.5 nM
COc1cc(C)nc(-c2ccc(C[C@H](NC(=O)c3c(F)cc(N4CCOC[C@@H]4C(F)(F)F)cc3F)C(=O)O)c3cccnc23)n1 [Example 99, (S)-2-(2,6-difluoro-4-((R)-3-(trifluoromethyl)morpholino)benzamido)-3-(8-(4-methoxy-6-methylpyrimidin-2-yl)quinolin-5-yl)propanoic acid]	11.2 nM
N#Cc1ccc(-c2ccc(C[C@H](NC(=O)c3c(F)cc(NS(=O)(=O)c4ccc(-c5ccnc(F)c5)cc4)cc3F)C(=O)O)c3cccnc23)c(Cl)c1 [Example 47, (S)-3-(8-(2-chloro-4-cyanophenyl)quinolin-5-yl)-2-(2,6-difluoro-4-((4-(2-fluoropyridin-4-yl)phenyl)sulfonamido)benzamido)propanoic acid]	2.4 nM
CC[C@@H](Nc1cc(F)c(C(=O)N[C@@H](Cc2ccc(-c3c(C(F)(F)F)c4c(n(C)c3=O)CCC4)c3ncccc23)C(=O)O)c(F)c1)C(F)(F)F [Example 126, (S)-2-(2,6-difluoro-4-(((R)-1,1,1-trifluorobutan-2-yl)amino)benzamido)-3-(8-(1-methyl-2-oxo-4-(trifluoromethyl)-2,5,6,7-tetrahydro-1H-cyclopenta[b]pyridin-3-yl)quinolin-5-yl)propanoic acid]	0.6 nM
COc1c(F)cccc1-c1ccc(C[C@H](NC(=O)c2c(F)cc(NS(=O)(=O)c3ccc(-c4ccnc(F)c4)cc3)cc2F)C(=O)O)c2cccnc12 [Example 60, (S)-2-(2,6-difluoro-4-((4-(2-fluoropyridin-4-yl)phenyl)sulfonamido)benzamido)-3-(8-(3-fluoro-2-methoxyphenyl)quinolin-5-yl)propanoic acid]	3 nM
CCOCc1cc(OC)c(-c2cc(F)c(C[C@H](NC(=O)c3c(F)cccc3F)C(=O)O)c3cccnc23)c(OC)c1 [Example 39, (S)-2-(2,6-difluorobenzamido)-3-(8-(4-(ethoxymethyl)-2,6-dimethoxyphenyl)-6-fluoroquinolin-5-yl)propanoic acid]	81.6 nM
N#Cc1ccc(-c2ccc(C[C@H](NC(=O)c3c(F)cc(C(=O)NCC(F)(F)F)cc3F)C(=O)O)c3cccnc23)c(Cl)c1 [Example 28, (S)-3-(8-(2-chloro-4-cyanophenyl)quinolin-5-yl)-2-(2,6-difluoro-4-((2,2,2-trifluoroethyl)carbamoyl)benzamido)propanoic acid]	33.5 nM
N#Cc1ccc(-c2ccc(C[C@H](NC(=O)c3c(F)cc(CS(=O)(=O)c4ccccc4)cc3F)C(=O)O)c3cccnc23)c(Cl)c1 [Example 49, (S)-3-(8-(2-chloro-4-cyanophenyl)quinolin-5-yl)-2-(2,6-difluoro-4-((phenylsulfonyl)methyl)benzamido)propanoic acid]	33.7 nM
N#Cc1cc(Cl)c(-c2ccc(C[C@H](NC(=O)c3c(Cl)cccc3Cl)C(=O)O)c3cccnc23)c(Cl)c1 [Example 4, (S)-3-(8-(2,6-dichloro-4-cyanophenyl)quinolin-5-yl)-2-(2,6-dichlorobenzamido)propanoic acid]	6.7 nM
CC[C@@H](Nc1cc(F)c(C(=O)N[C@@H](Cc2ccc(-c3cc(Cl)c(C)n(C)c3=O)c3ncccc23)C(=O)O)c(F)c1)C(F)(F)F [Example 116, (S)-3-(8-(5-chloro-1,6-dimethyl-2-oxo-1,2-dihydropyridin-3-yl)quinolin-5-yl)-2-(2,6-difluoro-4-(((R)-1,1,1-trifluorobutan-2-yl)amino)benzamido)propanoic acid]	1.2 nM

Same assay, conditions: Table 2; capture of α4β7 expressing RPM18866 cells on MadCAM-1 extracellular domain-coated plate

SMILES	EC50
CC[C@@H](Nc1cc(F)c(C(=O)N[C@@H](Cc2ccc(-c3nc(C)ccc3C(F)(F)F)c3ncccc23)C(=O)O)c(F)c1)C(F)(F)F [Example 289]	6.5 nM
CCOc1ccnc(-c2ccc(C[C@H](NC(=O)c3c(F)cc(N4CCOC[C@@H]4C(F)(F)F)cc3F)C(=O)O)c3cccnc23)c1C(F)(F)F [Example 193]	1.4 nM
Cc1cc(C(F)(F)F)c(-c2ccc(C[C@H](NC(=O)c3c(F)cc(N4CCO[C@@H](C)C4)cc3F)C(=O)O)c3cccnc23)c(=O)n1C [Example 181]	0.7 nM
CC[C@@H](Nc1cc(F)c(C(=O)N[C@@H](Cc2ccc(-c3c(C)n(C)c(=O)n(C)c3=O)c3ncccc23)C(=O)O)c(F)c1)C(F)(F)F (atropisomer, axis not shown) [Example 234]	2.3 nM
CC[C@@H](Nc1cc(F)c(C(=O)N[C@@H](Cc2ccc(-c3c(OC)ccn(C)c3=O)c3ncccc23)C(=O)O)c(F)c1)C(F)(F)F [Example 186]	1 nM
CC[C@@H](Nc1cc(F)c(C(=O)N[C@@H](Cc2ccc(-c3c(C)cc(C)n(C)c3=O)c3ncccc23)C(=O)O)c(F)c1)C(F)(F)F [Example 345]	0.8 nM
N#Cc1ccc(-c2ccc(C[C@H](NC(=O)c3c(F)cccc3OC(F)F)C(=O)O)c3cccnc23)c(Cl)c1 [Example 222]	48.3 nM
Cc1nc(-c2ccc(C[C@H](NC(=O)c3c(F)cc(N4CCOC[C@@H]4C(F)(F)F)cc3F)C(=O)O)c3cccnc23)nc2cc(F)ccc12 [Example 206]	1.7 nM
CC[C@@H](Nc1cc(F)c(C(=O)N[C@H](Cc2ccc(-c3c(C(F)(F)F)cc(C)n(C)c3=O)c3ncccc23)C(=O)O)c(F)c1)C(F)(F)F [Example 253]	3.2 nM
Cc1c(-c2ccc(C[C@H](NC(=O)c3c(F)cc(N4CCS(=O)(=O)[C@H](C)C4)cc3F)C(=O)O)c3cccnc23)c(=O)n(C)c(=O)n1C [Example 237]	2.6 nM
N#Cc1ccc(-c2ccc(C[C@H](NC(=O)c3c(F)cc(N[C@H](C4CCC4)C(F)(F)F)cc3F)C(=O)O)c3cccnc23)c(Cl)c1 [Example 333]	24.1 nM
